Test results taken from article PMC12336229, “Peptide-mimetics derived from leucyl-tRNA synthetase are potential agents for the therapy of mt-tRNA related diseases” (Frontiers in Pharmacology, 2025).

What was measured:
Adult C57BL/6 male mice = experiment: Tolerability in animals (i.v., scores, body weight, grid-hanging test); assay type: in vivo
Method: Sixty adult C57BL/6 male mice were initially included in the study. Twenty animals were dedicated to in vivo/ex vivo biodistribution of the radiolabelled PMT ^64Cu-PMT. The evaluation was carried out at four time points: 1, 3, 24 and 48 h. Forty animals were dedicated to tolerability studies with increasing PMT concentration: 1, 5, 10 and 50 mg/kg PMT or saline, i. v. (n = 10 per group). […] Therefore, only three groups of ten animals were dedicated to the tolerability test, and fifty C57BL/6 male mice were employed for the current study in total. […] Due to the rapidity of death, and the hydrophobic character of the C-terminal region of the PMT (see the Discussion section), it is possible that PMT aggregates obstructed one or more small vessels, causing micro-infarctions in vital organs (e.g., lung, heart, brain).
Adult C57BL/6 male mice were used to determine the general tolerability of i. v. administered PMT and identify the Maximum Tolerated Dose (MTD). To this purpose, animals were divided into four groups (n = 10 each) and injected in a tail vein with either saline (controls) or PMT freshly dissolved in saline at three scalar doses (1, 5 or 10 mg/kg). Each group was randomly divided in two subgroups (n = 5 each). Blood ocular withdrawal was performed at 1 h and 48 h post-injection for each subgroup, respectively. During this procedure, animals were anaesthetized with isoflurane (2% in medical air) and monitored until awakening.
The effect of PMT administration was evaluated every 2 days by observation of the animals and application of the following criteria and scores (see Supplementary Table S1): body weight loss (score: 1–5); coat conditions (score: 1–3); dehydration (score: 1–3); respiration (score: 1–3); spontaneous behaviour (score: 0–5); reaction to handling (score: 0–3) (IACUC of the San Raffaele Research Institute and FELASA Glossary 2015 ([Fentener van Vlissingen et al., 2015]).
The observation was carried out for 2 weeks post peptide injection. At the end, all the animals underwent a grid-hanging test to measure muscular strength performances after PMT or saline treatment ([Gayi et al., 2018]).
After a period of habituation to the metallic grid, mice were placed individually on top of a metallic grid (40 × 40 cm, 1.3 cm square mesh) suspended 50 cm above an empty cage. The grid was turned upside down and latency to fall was measured up to a fixed limit of 600 s. Each mouse performed three trials and the longest holding time (s) among them was multiplied by the animal’s body weight (g) to calculate Holding impulse (g*s).
After the test, mice were sacrificed under general anaesthesia (4% isoflurane in medical air) by cardiac puncture to withdraw blood, brain, heart, liver, kidney, spleen, and lymph nodes, which were collected into tubes with buffered formalin and stored at +4°C.
Data on PMT tolerability in animals (i.e., body mass monitoring and grip-hanging test) are expressed as mean ± SD and analysed using one-way ANOVA corrected for multiple comparison Turkey test.

m.3243A>G mutant cybrids = experiment: Respirometry assay, oxygen consumption rate (Clark type oxygen electrode); assay type: cell-based, human; details: 5 µM; after 36 h of treatment; compared with vehicle mutant cells
Method: (§1) Previously established osteosarcoma-derived (143B.TK-) cybrid cell lines from patients, which bear either the m.3243A>G mutation in mt-tRNA^Leu(UUR) or the m.8344A>G mutation in mt-tRNA^Lys and controls ([Perli et al., 2014]; [Perli et al., 2016]; [Perli et al., 2020]) were used.
(§2) Oxygen consumption rate (OCR) of cybrids was evaluated with Clark type oxygen electrode (Hansatech Instruments, Norfolk, United Kingdom). After cybrid incubation with compounds at 5 µM concentration, both control and mutant cybrids were maintained in glucose medium for 36 h, then OCR was measured in intact cells (3 × 10^6) in 1 mL DMEM lacking glucose supplemented with […].

[1] = system: control cells (WT and L-8344 cybrids); experiment: as above; assay type: cell-based, human; details: after 36 h, treated/vehicle ratio
Method: as §1, §2

[2] = system: m.8344A>G mutant cybrids (H-8344); experiment: as above; assay type: cell-based, human; details: 5 µM; after 36 h of treatment; compared with vehicle mutant cells
Method: as §1, §2

Compound: CC[C@@H](C)[C@@H](NC(=O)[C@@H](CC(C)C)NC(=O)[C@@H](C)NC(=O)[C@H](NC(=O)[C@@H](CCCNC(=N)N)NC(=O)[C@H]1CCCN1C(=O)[C@@H](CO)NC(=O)[C@@H](CC(C)C)NC(=O)[C@@H](Cc1ccccc1)NC(=O)[C@@H](CO)NC(=O)[C@@H](CCCCN)NC(=O)[C@H](N)CCCCN)[C@H](C)O)C(=O)N[C@H](CC(N)=O)C(=O)N[C@H](Cc1ccccc1)C(=O)N[C@H](CC(C)C)C(=O)N[C@@H](C(N)=O)C(C)C [PMT]
- Tolerability after a single i.v. acute administration (Adult C57BL/6 male mice; 1, 5 and 10 mg/kg, wild-type mice, 14 days of observation): well tolerated
- Mice with decrease of body weight (score 4) (Adult C57BL/6 male mice; mouse, in vivo): 1/10
- Mice with mild tachypnoea (score 1) (Adult C57BL/6 male mice; mouse, in vivo): 5/10
- Mice with slight decrease of body weight (score 1) (Adult C57BL/6 male mice; mouse, in vivo): 5/10
- Mice with slight decrease of body weight (score 1–2) (Adult C57BL/6 male mice; mouse, in vivo): 5/10
- Outcome of the highest dose (Adult C57BL/6 male mice; mouse, in vivo): died immediately after the administration
- Safe dosage (Adult C57BL/6 male mice; mouse, in vivo, iv): up to 10 mg/kg
- Necropsy finding (Adult C57BL/6 male mice; mouse, in vivo, iv, 50 mg/kg): did not highlight any obvious macroscopic effect
- Oxygen consumption rate (m.3243A>G mutant cybrids): significant increase
- Oxygen consumption of control cells [1]: do not affect
- Oxygen consumption rate [2]: significant increase
